# Data published in patent publication US8946144B2, “Phosphonated glycopeptide and lipoglycopeptide antibiotics and uses thereof for the prevention and treatment of bone and joint infections” (The Medicines Company, priority 2006, dated 2015).
# Columns and labels:
# [1] = test system: S. aureus strain ATCC13709; experiment: Antibacterial susceptibility (MIC) in CAMHB; format: cell-based; details: S. aureus ATCC 13709; cation adjusted Mueller-Hinton broth; 37° C., 18 h
# Experimental: (§1) Susceptibility of S. aureus strain ATCC13709 to the commercial antibiotics and synthesized compounds was determined by following the guidelines set by the Clinical and Laboratory Standards Institute (formerly the National Committee for Clinical Laboratory Standards) (M26-A). Compounds were diluted two-fold serially in either DMSO (Vancomycin 4, Oritavancin 8, compounds 10, 31, 33, 39, 44, 50, 60, 65), DMF (compounds 18 and 21) or in PBS (compound 6) and transferred to cation-adjusted Mueller Hinton broth (CAMHB; Becton Dickinson). 50 μL of compounds diluted in CAMHB was mixed with […] of bacteria diluted in CAMHB in 96-well microtiter plates. The final number of micro-organisms in the assay was 5×10^5 c.f.u. per mL and the final concentration of DMSO or DMF in the assay, if present, was 1.25%. Assays were set up in duplicate and incubated at 37° C. for 18 h. The concentration of compound that inhibited visible growth was reported as the minimum inhibitory concentration (MIC).
# [2] = test system: S. aureus strain ATCC13709; experiment: Antibacterial susceptibility (MIC) in the presence of 50% serum; format: cell-based; details: S. aureus ATCC 13709
# Experimental: as §1
# Susceptibility testing experiments were also carried out in the presence of serum. These experiments were carried out similar to the susceptibility testing with the following modifications. 75 μL of compounds diluted in CAMHB was mixed with 75 μL of bacteria diluted in 100% serum from any given source (commercial pooled mouse serum (MS) and human serum (HS), Equitech-Bio Inc.). The final concentration of animal serum in the assay was 50% and the concentrations of all other components were identical to those described for susceptibility testing.
# [3] = Regeneration of parent drug from bone powder-bound prodrug; format: in vitro ADME; details: 24 h incubation, 37° C.
# Experimental: Amounts of parent drug “regenerated” from the phosphonated prodrug were measured as follows. Washed bone powder-bound prodrugs from the above experiment were resuspended in 400 μL PBS+2% DMSO or in 400 μL 50% (v/v in PBS+2% DMSO) human or rat serum. The suspension was incubated overnight at 37° C., centrifuged at 13,000 rpm for 2 min and the supernatant was recovered. The amount of regenerated parent drug in the supernatant was determined by measurements using the microbiological assays that were previously described for the prodrugs themselves. The amount of released drug from prodrug was deduced from standard curves of known amounts of parent drug that were used as reference for each experiment. The amount of regenerated drug assessed by this bioassay was corroborated by MIC determination. The percentage of drug regenerated in PBS or serum after the overnight incubation (Table 2) was deduced from the difference between the amount of bound prodrug and the amount of regenerated drug (not shown).
Compound,"Minimum inhibitory concentration, CAMHB [1] [µg/mL]","Minimum inhibitory concentration, CAMHB + 50% Human Serum [2] [µg/mL]","Minimum inhibitory concentration, CAMHB + 50% Mouse Serum [2] [µg/mL]","Minimum inhibitory concentration, CAMHB + 50% Rat Serum [2] [µg/mL]",% Conversion (prodrug converted to parent drug) ([3]; 50% human serum) [%],% Conversion (prodrug converted to parent drug) ([3]; 50% rat serum) [%],% Conversion (prodrug converted to parent drug) ([3]; PBS)
CNC(CC(C)C)C(=O)NC1C(=O)NC(CC(N)=O)C(=O)NC2C(=O)NC3C(=O)NC(C(=O)NC(C(=O)OCC(=O)Nc4ccc(CC(P(=O)(O)O)P(=O)(O)O)cc4)c4cc(O)cc(O)c4-c4cc3ccc4O)C(O)c3ccc(c(Cl)c3)Oc3cc2cc(c3OC2OC(CO)C(O)C(O)C2OC2CC(C)(N)C(O)C(C)O2)Oc2ccc(cc2Cl)C1O (centres unmarked) [Compound 21],16,16,16,32,3.5,4.1,3.5%
CNC(CC(C)C)C(=O)NC1C(=O)NC(CC(N)=O)C(=O)NC2C(=O)NC3C(=O)NC(C(=O)NC(C(=O)OCC(=O)NC(P(=O)(O)O)P(=O)(O)O)c4cc(O)cc(O)c4-c4cc3ccc4O)C(O)c3ccc(c(Cl)c3)Oc3cc2cc(c3OC2OC(CO)C(O)C(O)C2OC2CC(C)(N)C(O)C(C)O2)Oc2ccc(cc2Cl)C1O (centres unmarked) [Compound 18],16,8,16,32,2.34,2.58,2.09%
CC(C)C[C@H](C(=O)N[C@H]1C(=O)N[C@@H](CC(N)=O)C(=O)N[C@H]2C(=O)N[C@H]3C(=O)N[C@H](C(=O)N[C@H](C(=O)O)c4cc(O)cc(O)c4-c4cc3ccc4O)[C@H](O[C@H]3C[C@](C)(N)[C@@H](O)[C@H](C)O3)c3ccc(c(Cl)c3)Oc3cc2cc(c3O[C@@H]2O[C@H](CO)[C@@H](O)[C@H](O)[C@H]2O[C@H]2C[C@](C)(NCc3ccc(-c4ccc(Cl)cc4)cc3)[C@@H](O)[C@H](C)O2)Oc2ccc(cc2Cl)[C@H]1O)N(C)C(=O)OCOC(=O)CCC(P(=O)(O)O)P(=O)(O)O.O=C(O)C(F)(F)F.O=C(O)C(F)(F)F [Compound 65],8,4,0.5,1,,26.4,0.2%
CC(C)C[C@H](C(=O)N[C@H]1C(=O)N[C@@H](CC(N)=O)C(=O)N[C@H]2C(=O)N[C@H]3C(=O)N[C@H](C(=O)N[C@H](C(=O)O)c4cc(O)cc(O)c4-c4cc3ccc4O)[C@H](O[C@H]3C[C@](C)(N)[C@@H](O)[C@H](C)O3)c3ccc(c(Cl)c3)Oc3cc2cc(c3O[C@@H]2O[C@H](CO)[C@@H](O)[C@H](O)[C@H]2O[C@H]2C[C@](C)(NCc3ccc(-c4ccc(Cl)cc4)cc3)[C@@H](O)[C@H](C)O2)Oc2ccc(cc2Cl)[C@H]1O)N(C)C(=O)CCC(P(=O)(O)O)P(=O)(O)O [Compound 39],>32,>32,>32,>32,,0.9,0.01%
CC(C)C[C@H](C(=O)N[C@H]1C(=O)N[C@@H](CC(N)=O)C(=O)N[C@H]2C(=O)N[C@H]3C(=O)N[C@H](C(=O)N[C@H](C(=O)O)c4cc(O)cc(O)c4-c4cc3ccc4O)[C@H](O[C@H]3C[C@](C)(N)[C@@H](O)[C@H](C)O3)c3ccc(c(Cl)c3)Oc3cc2cc(c3O[C@@H]2O[C@H](CO)[C@@H](O)[C@H](O)[C@H]2O[C@H]2C[C@](C)(NCc3ccc(-c4ccc(Cl)cc4)cc3)[C@@H](O)[C@H](C)O2)Oc2ccc(cc2Cl)[C@H]1O)N(C)C(=O)OCOC(=O)CCCC(P(=O)(O)O)P(=O)(O)O [Compound 60],32,>32,32,32,,0.05,<LOD
